According to patent EP2958918B1, “DIHYDROPTERIDINONES II” (Boehringer Ingelheim International GmbH, priority 2013, dated 2014):

How the values were obtained:
[1] = test system: Aβ42; assay: Aβ42 cellular assay: inhibition of Aβ42 production in H4 neuroglioma cells stably expressing human APP695, electrochemiluminescence (Meso Scale Discovery) on supernatant; format: cell-based; conditions: 22 hours incubation, tested range 30 µM to 0.1 nM
Method: (§1) Cells were plated out to near confluency. The compounds to be tested were received as 10 mM stocks in 100% DMSO. A dilution series was initially generated in 100% DMSO and then diluted 200-fold in cell culture media such that the tested concentration range was 30 µM to 0.1 nM and the final DMSO concentration was 0.5%. The diluted compounds were incubated with the cells for 22 hours in an incubator at 37°C and 5% CO2. Aβ42 as well as Aβ total levels were then measured post-incubation from the supernatant of the cells. Aβ42 levels were determined using a specific electrochemiluminescence assay provided by Meso Scale Discovery (Catalog # L21CA-1) according to the manufacturer's protocol. Aβ total levels were likewise determined using a specific electrochemiluminescence assay provided by Meso Scale Discovery (Catalog # L21ZA-1) according to the manufacturer's protocol.
(§2) In order to absolutely define the described compounds as modulators of y-Secretase as opposed to simply inhibitors of γ-Secretase, measurements of not only Aβ42 but also Aβ total are performed.

[2] = test system: Aβ total; assay: Aβ total cellular assay: inhibition of Aβ total production in H4 neuroglioma cells stably expressing human APP695, electrochemiluminescence (Meso Scale Discovery) on supernatant; used for the ratio Aβ total IC50 / Aβ42 IC50; format: cell-based; conditions: higher ratio = more specific inhibition of Aβ42
Method: as §1, §2

| Structure (SMILES) | IC50 [1] [nM] | Ratio Aß(total)/Aß42 [2] |
| --- | --- | --- |
| COc1cc(Nc2ncc3c(n2)N(C)C2(CCOCC2)C(=O)N3C)ccc1-c1cnc(C)o1 [Example 1] | 120 | > 244 |
| COc1cc(Nc2ncc3c(n2)N(C)C2(CCOCC2)C(=O)N3C)ccc1-n1cnc(C)c1 [Example 2] | 190 | 89 |
| Cc1ncc(-c2ccc(Nc3ncc4c(n3)N(C)C3(CCOCC3)C(=O)N4C)cn2)o1 [Example 3] | 5400 | >6 |
| COc1cc(Nc2nc(C)c3c(n2)N(C)C2(CCOCC2)C(=O)N3C)ccc1-n1cnc(C)c1 [Example 4] | 290 | 101 |
| Cc1ncc(-c2ccc(Nc3nc(C)c4c(n3)N(C)C3(CCOCC3)C(=O)N4C)cn2)o1 [Example 5] | 3200 | >9 |
| COc1cc(Nc2ncc3c(n2)N(C)C2(CCOC2)C(=O)N3C)ccc1-n1cnc(C)c1 (stereo not drawn) [Example 6] | 220 | > 136 |
| COc1cc(Nc2ncc3c(n2)N(C)C2(CCOC2)C(=O)N3C)ccc1-c1cnc(C)o1 (stereo not drawn) [Example 7] | 95 | > 315 |
| Cc1ncc(-c2ccc(Nc3ncc4c(n3)N(C)C3(CCOC3)C(=O)N4C)cn2)o1 (stereo not drawn) [Example 8] | 3000 | >10 |
| COc1cc(Nc2ncc3c(n2)N(C)C2(CCOCC2)C(=O)N3)ccc1-n1cnc(C)c1 [Example 9] | 300 | > 101 |
| COc1cc(Nc2ncc3c(n2)N(C)C2(CCOC2)C(=O)N3)ccc1-n1cnc(C)c1 (stereo not drawn) [Example 10] | 620 | 46 |
| COCCN1C(=O)C2(CCOCC2)N(C)c2nc(Nc3ccc(-n4cnc(C)c4)c(OC)c3)ncc21 [Example 11] | 310 | 26 |
| COCCN1C(=O)C2(CCOCC2)N(C)c2nc(Nc3ccc(-c4ccnc(C)c4)cc3)ncc21 [Example 12] | 1900 | 11 |
| COCCN1C(=O)C2(CCOCC2)N(C)c2nc(Nc3ccc(-n4cnc(C)n4)c(OC)c3)ncc21 [Example 13] | 2200 | >13 |
| COCCN1C(=O)C2(CCOC2)N(C)c2nc(Nc3ccc(-c4ccnc(C)c4)cc3)ncc21 (stereo not drawn) [Example 14] | 1400 | > 27 |
| COCCN1C(=O)C2(CCOC2)N(C)c2nc(Nc3ccc(-n4cnc(C)n4)c(OC)c3)ncc21 (stereo not drawn) [Example 15] | 2100 | >15 |
| COCCN1C(=O)C2(CCOC2)N(C)c2nc(Nc3ccc(-n4cnc(C)c4)c(OC)c3)ncc21 (stereo not drawn) [Example 16] | 180 | 88 |
| CCCN1C(=O)C2(CCOCC2)N(C)c2nc(Nc3ccc(-n4cnc(C)c4)c(OC)c3)ncc21 [Example 17] | 94 | 65 |
| Cc1cn(-c2ccc(Nc3ncc4c(n3)N(C)C3(CCOC3)C(=O)N4C)cc2C#N)cn1 (stereo not drawn) [Example 18] | 300 | 145 |
| Cc1cn(-c2ccc(Nc3ncc4c(n3)NC3(CCOC3)C(=O)N4C)cc2C#N)cn1 (stereo not drawn) [Example 19] | 280 | > 257 |
| COc1cc(Nc2ncc3c(n2)NC2(CCOC2)C(=O)N3C)ccc1-n1cnc(C)c1 (stereo not drawn) [Example 20] | 790 | > 90 |
| COc1cc(Nc2ncc3c(n2)N(C)C2(CCOC2)C(=O)N3C2COC2)ccc1-n1cnc(C)c1 (stereo not drawn) [Example 21] | 220 | 114 |
| COc1cc(Nc2ncc3c(n2)NC2(CCOC2)C(=O)N3CC2CCOCC2)ccc1-n1cnc(C)c1 (stereo not drawn) [Example 22] | 3300 | >9 |
| COc1cc(Nc2ncc3c(n2)N(C)C2(CCOC2)C(=O)N3C(C)C)ccc1-n1cnc(C)c1 (stereo not drawn) [Example 23] | 39 | 599 |
| COc1cc(Nc2ncc3c(n2)N(CC2CCOCC2)C2(CCOC2)C(=O)N3CC2CCOCC2)ccc1-n1cnc(C)c1 (stereo not drawn) [Example 24] | 3000 | >10 |
